Data published in US20250000841A1, “Administration of Resiniferatoxin For Treatment of Prostate Cancer” (Sorrento Therapeutics, Inc., priority 2021, published 2025).

Key:
[1] = tested on: human prostate cancer cell line DU145; assay: proliferation assay, prostate cancer cell line DU145; assay type: cell-based; conditions: DU145 cells cultured with varying amounts of RTX, FIG. 2C
Text: (§1) Proliferation measurements were normalized to an untreated control.

[2] = tested on: human prostate cancer cell line LNCaP; assay: proliferation assay, prostate cancer cell line LNCaP; assay type: cell-based; conditions: LNCaP cells cultured with varying amounts of RTX, FIG. 2C
Text: as §1

[3] = tested on: human DU145 prostate carcinoma cells engrafted s.c.; assay: mouse xenograft tumor model, tumor volume over time; assay type: in vivo; conditions: 0.1, 0.5 and 1 μg/dose, local (peritumoral) every other day from day 28 after engraftment, FIG. 3A
Description: (§2) FIGS. 3A, 3B and 3C show RTX inhibits prostate carcinoma progression in a cytostatic manner. […] RTX was administered locally (peritumorally) every other day at the indicated dose starting at 28 days after engraftment. The cytostatic activity appeared to be dose-independent in the tested range of 0.1-1 μg/dose. […] Scale, 100 μm. CD31+ blood vessel length and cleaved caspase 3 levels (expressed as median fluorescence intensity, MFI) are quantified in FIG. 3C.

[4] = tested on: human DU145 prostate carcinoma xenograft tumor tissue; assay: H&E staining and immunofluorescence of dissected xenograft tumor tissues; assay type: in vivo, mouse; conditions: immunofluorescence of tumor tissue, FIG. 3C
Description: as §2
Dissected tumor tissues were assessed by H&E staining and by immunofluorescence for CD31 (tumor vessel marker), DRAQ7 (nuclear marker), and cleaved caspase 3 (apoptotic cell maker). […] (FIG. 3B, upper row). […] (FIG. 3B, middle row).

[5] = tested on: tumor associated inflammatory cytokines (IL-6, IFNγ); assay: cytokine array of xenograft tumor tissue homogenates; assay type: in vivo, mouse
Text: Reduced IL-6 expression in a dose-dependent manner is shown magnified (FIG. 4A).
Some studies of RTX have reported a potential to induce neurologic inflammatory responses. […] Tumor tissue homogenate samples from mouse xenograft tumor models described in Example B were taken at necroptic endpoint and analyzed for tumor associated inflammatory cytokine levels using a cytokine array (FIG. 4A).

SMILES: C=C(C)[C@]12C[C@@H](C)[C@@]34O[C@](Cc5ccccc5)(O[C@@H]1[C@@H]3C=C(COC(=O)Cc1ccc(O)c(OC)c1)C[C@]1(O)C(=O)C(C)=C[C@@H]41)O2 [RTX, Resiniferatoxin]
- proliferation (normalized to untreated control) [1]: dose-dependent decreases in proliferation
- proliferation (normalized to untreated control) [2]: dose-dependent decreases in proliferation
- cytostatic efficacy (tumor volume) [3]: potent cytostatic efficacy in a dose-independent manner
- tumor cell apoptosis (cleaved caspase 3 staining) ([4]; FIG. 3B lower row): tumor cell apoptosis increased
- CD31+ tumor vasculature ([4]; FIG. 3B middle row): decreased contiguous CD31+ stained structures
- Cytokine Release Syndrome (inflammatory cytokine expression) ([5]; tumor homogenates taken at necroptic endpoint, FIG. 4A): no indication of Cytokine Release Syndrome (CRS)
- IFNγ expression ([5]; tumor homogenates, cytokine array): did not induce elevated expression of IFNγ
- IL-6 expression ([5]; tumor homogenates, higher RTX doses, FIG. 4A-C): reduced expression
